Data from PMC6130797 (ACS Omega, 2018).
“And” between values parts separate entries of the source, which are not always exact repeats. Equal values may be shown once. Read-outs that look alike come from different tables or passages of the source.

Legend:
gpH2R = gpH2R (Cavia porcellus, UniProt P47747); parameters: species or system guinea pig
hH2R [1] = molecular target: T1, hH2R (Homo sapiens, UniProt P25021); format: binding
hH4R [2] = molecular target: T2, hH4R (Homo sapiens, UniProt Q9H3N8); experiment: Radioligand competition binding with [3H]histamine, Sf9 cell membranes
T2 sequence (Q9H3N8 whole entry): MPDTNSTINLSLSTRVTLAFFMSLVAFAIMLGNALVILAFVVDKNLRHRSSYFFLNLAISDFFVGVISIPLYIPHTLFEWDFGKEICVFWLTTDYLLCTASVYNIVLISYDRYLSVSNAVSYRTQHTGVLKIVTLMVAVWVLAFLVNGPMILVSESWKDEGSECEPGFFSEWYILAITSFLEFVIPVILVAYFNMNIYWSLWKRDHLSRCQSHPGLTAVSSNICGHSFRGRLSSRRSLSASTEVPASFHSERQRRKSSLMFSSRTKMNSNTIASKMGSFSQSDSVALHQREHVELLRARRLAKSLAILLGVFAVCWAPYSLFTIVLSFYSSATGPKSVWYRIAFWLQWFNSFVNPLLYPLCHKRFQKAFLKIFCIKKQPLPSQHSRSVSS

gpH1R = gpH1R (Cavia porcellus, UniProt P31389); experiment: Histamine H1 receptor assay on isolated guinea pig ileum
Sequence of gpH1R (P31389 whole entry): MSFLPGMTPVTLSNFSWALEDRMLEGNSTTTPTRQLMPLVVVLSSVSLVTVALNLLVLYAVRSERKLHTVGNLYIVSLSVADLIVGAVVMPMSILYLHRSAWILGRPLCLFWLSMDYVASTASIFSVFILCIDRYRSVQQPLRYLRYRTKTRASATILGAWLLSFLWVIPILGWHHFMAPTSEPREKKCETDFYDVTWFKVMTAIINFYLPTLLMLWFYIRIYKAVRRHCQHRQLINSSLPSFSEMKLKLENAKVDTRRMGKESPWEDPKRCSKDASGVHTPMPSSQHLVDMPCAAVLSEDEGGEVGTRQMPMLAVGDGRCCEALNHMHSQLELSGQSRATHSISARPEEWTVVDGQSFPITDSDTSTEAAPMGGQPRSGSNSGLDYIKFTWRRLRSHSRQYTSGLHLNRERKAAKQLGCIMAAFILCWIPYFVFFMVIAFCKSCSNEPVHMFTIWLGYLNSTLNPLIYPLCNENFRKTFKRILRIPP

hH4R [3] = molecular target: T2, hH4R; experiment: [35S]GTPγS binding assay, Sf9 cell membranes; format: biochemical
hH2R [4] = molecular target: T1, hH2R; experiment: [35S]GTPγS binding assay, Sf9 cell membranes; format: biochemical
hH3R [5] = molecular target: T3, hH3R (Homo sapiens, UniProt Q9Y5N1); experiment: Radioligand competition binding with [3H]Nα-methylhistamine, Sf9 cell membranes
T3 sequence (Q9Y5N1 whole entry): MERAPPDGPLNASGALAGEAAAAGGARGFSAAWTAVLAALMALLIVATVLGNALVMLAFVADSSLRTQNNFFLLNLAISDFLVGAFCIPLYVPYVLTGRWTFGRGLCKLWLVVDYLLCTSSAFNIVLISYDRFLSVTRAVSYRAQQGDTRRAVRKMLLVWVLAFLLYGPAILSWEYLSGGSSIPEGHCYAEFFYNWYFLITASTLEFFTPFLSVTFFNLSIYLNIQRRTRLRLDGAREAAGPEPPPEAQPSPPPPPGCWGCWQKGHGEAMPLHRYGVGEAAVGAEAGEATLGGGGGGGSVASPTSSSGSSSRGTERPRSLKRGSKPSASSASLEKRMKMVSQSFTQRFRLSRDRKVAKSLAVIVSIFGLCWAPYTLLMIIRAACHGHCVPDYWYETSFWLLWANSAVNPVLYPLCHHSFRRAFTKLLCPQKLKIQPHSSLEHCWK

hH3R [6] = molecular target: T3, hH3R; experiment: [35S]GTPγS binding assay, Sf9 cell membranes; format: biochemical
hH1R = hH1R (Homo sapiens, UniProt P35367); experiment: biochemical; format: binding
Sequence of hH1R (P35367 whole entry): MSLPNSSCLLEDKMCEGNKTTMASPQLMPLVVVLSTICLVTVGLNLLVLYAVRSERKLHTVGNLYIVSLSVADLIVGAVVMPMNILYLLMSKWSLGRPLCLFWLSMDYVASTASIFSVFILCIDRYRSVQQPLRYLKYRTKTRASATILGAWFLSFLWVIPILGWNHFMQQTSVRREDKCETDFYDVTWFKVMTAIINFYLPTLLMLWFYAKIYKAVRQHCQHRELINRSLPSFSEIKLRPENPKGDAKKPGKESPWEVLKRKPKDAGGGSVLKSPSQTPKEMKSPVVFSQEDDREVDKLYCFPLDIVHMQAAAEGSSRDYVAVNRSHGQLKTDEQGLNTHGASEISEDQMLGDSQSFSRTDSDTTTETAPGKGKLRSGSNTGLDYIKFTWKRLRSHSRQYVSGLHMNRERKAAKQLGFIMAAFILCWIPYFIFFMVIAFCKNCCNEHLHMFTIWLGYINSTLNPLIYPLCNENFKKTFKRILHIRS

[7] = hH2R pKi, [3H]tiotidine (Kd […], c = 10 nM), mean ± SEM
[8] = hH3R pKi, [3H]Nα-methylhistamine (Kd 8.6 nM, c = 3 nM), mean ± SEM
[9] = hH1R pKi, [3H]mepyramine (Kd 4.5 nM, c = 5 nM), mean ± SEM

T1 sequence (P25021 whole entry): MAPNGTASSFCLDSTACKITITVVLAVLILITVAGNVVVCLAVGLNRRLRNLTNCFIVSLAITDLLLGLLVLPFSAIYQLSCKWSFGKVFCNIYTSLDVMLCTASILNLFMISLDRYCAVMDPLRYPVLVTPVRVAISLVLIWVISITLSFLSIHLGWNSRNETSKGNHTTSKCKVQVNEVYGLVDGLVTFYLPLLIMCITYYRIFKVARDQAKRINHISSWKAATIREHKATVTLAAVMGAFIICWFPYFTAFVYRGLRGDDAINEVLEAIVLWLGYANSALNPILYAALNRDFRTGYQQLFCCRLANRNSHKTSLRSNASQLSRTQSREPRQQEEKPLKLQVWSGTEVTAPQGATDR
T1 sequence (P63092 1-380 isoform P63092-2 partner): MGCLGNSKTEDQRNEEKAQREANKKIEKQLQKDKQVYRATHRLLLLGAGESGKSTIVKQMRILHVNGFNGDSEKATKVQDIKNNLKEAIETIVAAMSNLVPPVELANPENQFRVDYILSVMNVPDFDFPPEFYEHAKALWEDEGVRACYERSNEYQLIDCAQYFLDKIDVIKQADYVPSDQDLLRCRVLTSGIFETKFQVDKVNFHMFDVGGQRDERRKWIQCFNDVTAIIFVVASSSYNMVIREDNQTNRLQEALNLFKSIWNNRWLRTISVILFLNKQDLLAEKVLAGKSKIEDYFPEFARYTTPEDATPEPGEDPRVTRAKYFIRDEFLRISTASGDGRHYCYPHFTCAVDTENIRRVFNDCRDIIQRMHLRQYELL
Sequence of gpH2R (P47747 whole entry): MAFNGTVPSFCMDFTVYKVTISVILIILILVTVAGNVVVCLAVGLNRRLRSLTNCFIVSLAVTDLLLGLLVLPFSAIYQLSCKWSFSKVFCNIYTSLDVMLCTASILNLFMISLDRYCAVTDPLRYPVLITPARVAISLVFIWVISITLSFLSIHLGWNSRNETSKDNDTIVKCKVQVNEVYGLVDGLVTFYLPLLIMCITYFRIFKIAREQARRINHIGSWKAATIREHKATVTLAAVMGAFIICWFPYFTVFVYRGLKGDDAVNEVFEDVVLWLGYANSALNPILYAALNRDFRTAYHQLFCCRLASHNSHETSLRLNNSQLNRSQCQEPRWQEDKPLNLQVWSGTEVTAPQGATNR

Compound	EC50 (gpH2R)	gpH2R Emax (gpH2R)	Ki (hH2R [1]; [7])	Ki (hH4R [2]; hH4R pKi)	Kb (gpH1R)	Ki (hH3R [5]; [8])	Ki (hH1R; hH1R pKi)	also measured
N=C(NCCCCCCCCNC(=N)NCCCc1cnc(N)s1)NCCCc1cnc(N)s1 [Compound 59]	0.0204 µM	0.94 ± 0.03	0.234 µM	52.5 µM	0.832 µM	11 µM	> 10 µM	difference in pKi (H2R) over pKi (H1,3,4R) (hH2R [1]; hH2R selectivity from radioligand binding): at least 1.5 log units; Kb (hH4R [3]): 263 µM; hH4R Emax (hH4R [3]): 0; EC50 (hH2R [4]): 0.295 µM; hH2R Emax (hH2R [4]): 0.40 ± 0.05; Kb (hH3R [6]): 89.1 µM; hH3R Emax (hH3R [6]): 0
N=C(NCCCCCCCCNC(=N)NCCCn1ccnc1)NCCCn1ccnc1 [Compound 60]	4.9 µM	0.20 and 0.20 ± 0.02	4.47 µM	33.9 µM	4.27 µM	2.75 µM	> 10 µM	
CC(C)NC(=N)NCCCc1c[nH]cn1 [Compound 130]	1.55 µM	0.87 ± 0.04	4.17 µM	0.038 µM	5.37 µM	0.0912 µM	> 10 µM	
CC(C)(C)NC(=N)NCCCc1c[nH]cn1 [Compound 133]	15.1 µM	0.92 ± 0.03	2.51 µM	0.219 µM		0.372 µM	> 100 µM	
N=C(NCCCCNC(=N)NCCCc1c[nH]cn1)NCCCc1c[nH]cn1 [Compound 54]	0.038 µM	0.94 ± 0.01	0.407 µM	0.661 µM	1.29 µM	0.145 µM	> 10 µM	
CC(C)CNC(=N)NCCCc1c[nH]cn1 [Compound 132]	1.35 µM	0.86 ± 0.08	0.759 µM	0.0178 µM	10.2 µM	0.0661 µM		Ki (hH1R; [9]): > 31.6 µM
CNC(=N)NCCCc1c[nH]cn1 [Compound 127]	7.94 µM	0.58 ± 0.07	2.75 µM	0.0263 µM	58.9 µM	0.155 µM		Ki (hH1R; [9]): > 31.6 µM
CCNC(=N)NCCCc1c[nH]cn1 [Compound 128]	7.24 µM	0.55 ± 0.07	4.9 µM	0.0135 µM	8.32 µM	0.0933 µM		Ki (hH1R; [9]): > 31.6 µM
N=C(NCCCCCCNC(=N)NCCCc1c[nH]cn1)NCCCc1c[nH]cn1 [Compound 55]	0.0166 µM	0.90 ± 0.04	0.151 µM	0.427 µM	2.04 µM	0.0525 µM	> 3.16 µM	
Cc1nc(N)sc1CCCNC(=N)NCCCCCCCCNC(=N)NCCCc1c[nH]cn1 [Compound 61]	0.0102 µM	0.91 ± 0.03	0.117 µM	0.0741 µM	1.41 µM	0.0324 µM	> 1 µM	Kb (hH4R [3]): 204 µM; hH4R Emax (hH4R [3]): 0; EC50 (hH2R [4]): 0.589 µM; hH2R Emax (hH2R [4]): 0.54 ± 0.05; Kb (hH3R [6]): 0.0661 µM; hH3R Emax (hH3R [6]): 0
CNCCc1cnc[nH]1 [[^3H]N^α-methylhistamine, reference compound]								Kd (hH3R [5]; read-out: Kd of radioligand at hH3R, Sf9 membranes): 0.0086 µM
CCCCNC(=N)NCCCc1c[nH]cn1 [Compound 131]	0.832 µM	0.86 ± 0.04	0.776 µM	0.00912 µM	4.07 µM	0.0617 µM	> 10 µM	
CCCCCCCCCCCCNC(=N)NCCCn1ccnc1 [Compound 141]		0	1.26 µM	12.9 µM	0.372 µM	6.46 µM	> 3.16 µM	gpH2R pEC50 (gpH2R): not active
N=C(NCCCNC(=N)NCCCc1c[nH]cn1)NCCCc1c[nH]cn1 [Compound 53]	0.049 µM	0.96 and 0.96 ± 0.01	0.174 µM	0.2 µM	0.631 µM	0.112 µM	> 10 µM	
CCCCCCCCCCCCNC(=N)NCCCc1sc(N)nc1C [Compound 139]	0.269 µM	0.60 ± 0.02	0.468 µM	5.62 µM	0.437 µM	2.04 µM	> 3.16 µM	EC50 (hH4R [3]): 13.8 µM; hH4R Emax (hH4R [3]): –0.97 ± 0.01; quality of action at hH4R (hH4R [3]; [35S]GTPγS binding assay): inverse agonistic activity; EC50 (hH2R [4]): 6.92 µM; Kb (hH3R [6]): 4.27 µM; hH3R Emax (hH3R [6]): 0
CCCNC(=N)NCCCc1c[nH]cn1 [Compound 129, 1-[3-(1H-Imidazol-4-yl)propyl]-3-propylguanidine]		0.83 ± 0.03	3.02 µM					Ki (hH2R [1]; Ki hH2R, bound stated): > 1 µM; Ki (hH4R [2]; Ki hH4R, bound stated): < 0.1 µM; Ki (hH3R [5]; Ki hH3R, bound stated): < 0.1 µM; Ki (hH1R; Ki hH1R, bound stated): > 1 µM; Ki (hH1R; [9]): > 31.6 µM
CC(C)CCNC(=N)NCCCc1c[nH]cn1 [Compound 135]	0.24 µM	0.89 ± 0.05	0.794 µM	0.0251 µM	7.24 µM	0.115 µM	> 10 µM	
N=C(NCCCCCCCCCCNC(=N)NCCCc1c[nH]cn1)NCCCc1c[nH]cn1 [Compound 56]	0.0251 µM	0.71 ± 0.04	0.0339 µM	0.0209 µM	0.229 µM	0.0191 µM	1.26 µM	
CCCCCCCCCCCCNC(=N)NCCCc1cnc(N)s1 [Compound 140]	0.562 µM	0.70 ± 0.01	0.269 µM	11.2 µM	0.372 µM	14.1 µM	> 3.16 µM	
CCCCCCCCCCNC(=N)NCCCc1c[nH]cn1 [Compound 137]	0.295 µM	0.90 ± 0.03	0.141 µM	0.0977 µM	0.182 µM	0.0316 µM	2 µM	gpH1R pA2 (gpH1R; guinea pig ileum, antagonism of histamine-induced contraction): 6.74
CCCCCNC(=N)NCCCc1c[nH]cn1 [Compound 134]	0.363 µM	0.90 ± 0.02	0.933 µM	0.00676 µM	4.47 µM	0.0912 µM	> 10 µM	
c1nc(CCCNC2=NCCCN2)c[nH]1 [Compound 145, N-[3-(1H-imidazol-4-yl)propyl]-1,4,5,6-tetrahydropyrimidin-2-amine]	1.51 µM		3.16 µM	0.038 µM	5.75 µM		> 10 µM	gpH2R Emax (gpH2R; guinea pig right atrium, relative to maximal increase in heart rate induced by histamine (Emax = 1.00)): 1.00 ± 0.03; Ki (hH3R [5]; hH3R pKi): 0.186 µM
CCCCCCCCCCCCNC(=N)NCCCc1c[nH]cn1 [Compound 138]	0.234 µM	0.91 and 0.91 ± 0.03	0.603 µM	0.0126 µM	0.195 µM	0.0295 µM	2.95 µM	
